Data: ChEMBL document CHEMBL1123898, “Antitumor imidazotetrazines. 14. Synthesis and antitumor activity of 6- and 8-substituted imidazo[5,1-d]-1,2,3,5-tetrazinones and 8-substituted pyrazolo[5,1-d]-1,2,3,5-tetrazinones” (1987)

What was measured:
Format in all cases: functional
L1210 [1] = experiment: Antitumor activity was assessed against L1210 tumors in B6D2F1 mouse by inoculation of 10e5 tumor cells through intraperitoneal route and mean death of animals (treated/control) was reported at 50 mg/kg peroral dose; conditions: route oral
[2] = Antitumor activity was assessed against TLX5 tumors in CBA/CA mouse by inoculation of 2 x 10e5 tumor cells through subcutaneous route and mean death of animals (treated/control) was reported at 320 mg/kg iv dose
[3] = Antitumor activity was assessed against TLX5 tumors in CBA/CA mouse by inoculation of 2 x 10e5 tumor cells through subcutaneous route and mean death of animals (treated/control) was reported at 640 mg/kg iv dose
L1210 [4] = experiment: Antitumor activity was assessed against L1210 tumors in B6D2F1 mouse by inoculation of 10e5 tumor cells through intraperitoneal route and mean death of animals (treated/control) was reported at 200 mg/kg peroral dose; conditions: route oral
[5] = Antitumor activity was assessed against TLX5 tumors in CBA/CA mouse by inoculation of 2 x 10e5 tumor cells through subcutaneous route and mean death of animals (treated/control) was reported at 80 mg/kg iv dose
[6] = Antitumor activity was assessed against TLX5 tumors in CBA/CA mouse by inoculation of 2 x 10e5 tumor cells through subcutaneous route and mean death of animals (treated/control) was reported at 40 mg/kg iv dose
[7] = Antitumor activity was assessed against TLX5 tumors in CBA/CA mouse by inoculation of 2 x 10e5 tumor cells through sc route and number of Survivors to duration was reported at 320 mg/kg iv dose; 1/5
L1210 [8] = experiment: Antitumor activity was assessed against L1210 tumors in B6D2F1 mouse by inoculation of 10e5 tumor cells through intraperitoneal route and mean death of animals (treated/control) was reported at 100 mg/kg peroral dose; conditions: route oral
[9] = Antitumor activity was assessed against TLX5 tumors in CBA/CA mouse by inoculation of 2 x 10e5 tumor cells through subcutaneous route and mean death of animals (treated/control) was reported at 160 mg/kg iv dose

Which results are given for `O=C(c1ncn2c(=O)n(CCCl)nnc12)N1CCCCC1`?
T/C (L1210 [1]): 100%; T/C [2]: >234%; T/C [3]: 25%; T/C (L1210 [4]): 171%; T/C [5]: 102%; T/C [6]: 98%; Survivors [7]: 1; T/C (L1210 [8]): 108%; T/C [9]: 120%
